Source: patent publication US6737383B1, “Herbicidal oxadiazolidines” (priority 1999, dated 2004)

Experiments:
corn = assay: Test B pre/postemergence corn; format: in vivo, Zea mays
Procedure, shortened: (§1)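 Herbicidal effect was estimated by eye on a ten-point control scale after plants spent twelve to sixteen days in a greenhouse following soil or foliar treatment. Foliar sprays targeted plants at one to four leaves; all doses were formulated in a non-phytotoxic solvent with surfactant.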

rape = assay: Test B pre/postemergence rape; format: in vivo, Brassica napus
Procedure, shortened: as §1

duck salad = assay: Test B flood test duck salad; format: in vivo, Heteranthera limosa; details: for Ducksalad plant response rating (0 to 10 scale, 0 is no effect, 10 is complete control): under heading Pre-emergence; for Ducksalad plant response rating (0 to 10 scale, 0 is no effect, 10 is complete control) / Plant response rating, Ducksalad (0 to 10 scale, 0 is no effect, 10 is complete control): visual evaluation after twelve to sixteen days
Procedure, shortened: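 Flood test on plants grown to the 2-leaf stage; treated plants kept in greenhouse twelve to sixteen days, then visually rated against controls on a 0 (no effect) to 10 (complete control) scale.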

sugar beet = assay: Test B pre/postemergence sugar beet; format: in vivo, Beta vulgaris
Procedure, shortened: as §1

[1] = Postemergence, Rate 250 g/ha, scale 0 to 10
[2] = Postemergence, Rate 500 g/ha, scale of 0 to 10 where 0 is no effect and 10 is complete control
[3] = Postemergence, Rate 1000 g/ha, scale 0 to 10 (0 no effect, 10 complete control)
[4] = Preemergence, Rate 125 g/ha, scale of 0 to 10 where 0 is no effect and 10 is complete control
[5] = Preemergence, Rate 250 g/ha, scale 0 to 10, 0 is no effect, 10 is complete control
[6] = Preemergence, Rate 500 g/ha, scale 0 to 10, 0 is no effect, 10 is complete control
[7] = Rate 125 g/ha, Postemergence, scale 0 to 10, 0 is no effect, 10 is complete control
[8] = Rate 1000 g/ha, Preemergence, scale 0 to 10 (0 no effect, 10 complete control)
[9] = Pre-emergence, Rate 1000 g/ha, scale 0 to 10 (0 no effect, 10 complete control)
[10] = Rate 125 g/ha, flood test species
[11] = Rate 250 g/ha, Pre-emergence (flood test species), scale 0 to 10, 0 is no effect, 10 is complete control
[12] = Rate 500 g/ha, Pre-emergence, flood test species, scale 0 to 10 (0 no effect, 10 complete control)
[13] = Preemergence, Rate 62 g/ha, scale of 0 to 10 where 0 is no effect and 10 is complete control
[14] = Rate 62 g/ha, Postemergence, scale 0 to 10, 0 no effect, 10 complete control
[15] = Rate 62 g/ha, flood test species, Pre-emergence
[16] = Postemergence, Rate 62 g/ha, scale of 0 to 10, 0 is no effect, 10 is complete control
[17] = Postemergence, Rate 125 g/ha, scale 0 to 10, 0 is no effect, 10 is complete control
[18] = Preemergence, Rate 62 g/ha, scale 0 to 10 (0 no effect, 10 complete control)
[19] = Preemergence, Rate 125 g/ha, scale 0 to 10, 0 is no effect, 10 is complete control
[20] = Preemergence, Rate 500 g/ha, scale of 0 to 10 where 0 is no effect and 10 is complete control
[21] = Rate 250 g/ha, Postemergence, scale of 0 to 10 where 0 is no effect and 10 is complete control
[22] = Rate 500 g/ha, Pre-emergence section of Table B, 0 to 10 scale (0 no effect, 10 complete control)
[23] = Postemergence, Rate 125 g/ha, scale of 0 to 10 where 0 is no effect and 10 is complete control
[24] = Postemergence, Rate 250 g/ha, scale of 0 to 10, 0 is no effect, 10 is complete control
[25] = Preemergence, Rate 125 g/ha, 0 is no effect, 10 is complete control
[26] = Rate 62 g/ha, Postemergence, scale of 0 to 10 where 0 is no effect and 10 is complete control
[27] = Rate 125 g/ha, Postemergence, scale 0 to 10
[28] = Rate 500 g/ha, Postemergence, scale 0 to 10

CCOP(=O)(OCC)C(C)n1c(=O)on(C(=O)N(c2ccccc2)C(C)C)c1=O (stereo not shown) [Compound 448]
2: Plant response rating, Corn (corn; [8])
0: Corn plant response rating (corn; [1]) | Corn plant response rating (corn; [2]) | Corn plant response rating (corn; [3]) | Plant response rating, Corn (corn; [4]) | Corn plant response rating (corn; [5]) | Corn plant response rating (corn; [6]) | Corn plant response rating (corn; [7]) | Rape plant response rating (rape; [1]) | Rape plant response rating (rape; [2]) | Rape plant response rating (rape; [3]) | Plant response rating, Rape (rape; [4]) | Rape plant response rating (rape; [5]) | Rape plant response rating (rape; [6]) | Rape plant response rating (rape; [7]) | Plant response rating, Rape (rape; [8]) | Ducksalad plant response rating (duck salad; [9]) | Ducksalad plant response rating (0 to 10 scale, 0 is no effect, 10 is complete control) (duck salad; [10]) | Ducksalad plant response rating (duck salad; [11]) | Ducksalad plant response rating (duck salad; [12]) | Sugarbeets plant response rating (sugar beet; [1]) | Sugarbeets plant response rating (sugar beet; [2]) | Sugarbeets plant response rating (sugar beet; [3]) | Plant response rating, Sugarbeets (sugar beet; [4]) | Sugarbeets plant response rating (sugar beet; [5]) | Sugarbeets plant response rating (sugar beet; [6]) | Sugarbeets plant response rating (sugar beet; [7]) | Plant response rating, Sugarbeets (sugar beet; [8])

CC(C)N(C(=O)n1oc(=O)n(COCC[Si](C)(C)C)c1=O)c1ccc(Cl)cc1 [Compound 467]
2: Sugarbeets plant response rating (sugar beet; [6]) | Sugarbeets plant response rating (sugar beet; [7])
0: Corn plant response rating (corn; [1]) | Corn plant response rating (corn; [2]) | Plant response rating, Corn (corn; [13]) | Plant response rating, Corn (corn; [4]) | Corn plant response rating (corn; [5]) | Corn plant response rating (corn; [6]) | Corn plant response rating (corn; [14]) | Corn plant response rating (corn; [7]) | Rape plant response rating (rape; [14]) | Rape plant response rating (rape; [7]) | Plant response rating, Ducksalad (0 to 10 scale, 0 is no effect, 10 is complete control) (duck salad; [15]) | Ducksalad plant response rating (0 to 10 scale, 0 is no effect, 10 is complete control) (duck salad; [10]) | Ducksalad plant response rating (duck salad; [11]) | Ducksalad plant response rating (duck salad; [12]) | Sugarbeets plant response rating (sugar beet; [14])
7: Plant response rating, Rape (rape; [4]) | Rape plant response rating (rape; [5]) | Rape plant response rating (rape; [6])
4: Rape plant response rating (rape; [1]) | Plant response rating, Rape (rape; [13]) | Sugarbeets plant response rating (sugar beet; [1])
1: Plant response rating, Sugarbeets (sugar beet; [13]) | Plant response rating, Sugarbeets (sugar beet; [4]) | Sugarbeets plant response rating (sugar beet; [5])

CCCCCCn1c(=O)on(C(=O)N(c2ccccc2)C(C)C)c1=O [Compound 558]
0: Corn plant response rating (corn; [16]) | Corn plant response rating (corn; [17]) | Plant response rating, Corn (corn; [2]) | Corn plant response rating (corn; [18]) | Corn plant response rating (corn; [19]) | Corn plant response rating (0 to 10 scale) (corn; Preemergence, Rate 250 g/ha) | Corn plant response rating (corn; [20]) | Plant response rating, Corn (corn; [21]) | Rape plant response rating (rape; [16]) | Rape plant response rating (rape; [17]) | Rape plant response rating (rape; [18]) | Rape plant response rating (rape; [19]) | Plant response rating, Rape (rape; [21]) | Plant response rating, Ducksalad (0 to 10 scale, 0 is no effect, 10 is complete control) (duck salad; [15]) | Ducksalad plant response rating (0 to 10 scale, 0 is no effect, 10 is complete control) (duck salad; [10]) | Ducksalad plant response rating (duck salad; [11]) | Ducksalad plant response rating (duck salad; [22]) | Sugarbeets plant response rating (sugar beet; [16]) | Sugarbeets plant response rating (sugar beet; [18]) | Sugarbeets plant response rating (sugar beet; [19]) | Sugarbeets plant response rating (0 to 10 scale) (sugar beet; Preemergence, Rate 250 g/ha)
2: Plant response rating, Rape (rape; [2]) | Rape plant response rating (0 to 10 scale) (rape; Preemergence, Rate 250 g/ha) | Rape plant response rating (rape; [20]) | Plant response rating, Sugarbeets (sugar beet; [2]) | Sugarbeets plant response rating (sugar beet; [20]) | Plant response rating, Sugarbeets (sugar beet; [21])

CCOP(=O)(Cn1c(=O)on(C(=O)N(c2ccc(F)cc2)C(C)C)c1=O)OCC [Compound 587]
0: Plant response rating, Corn (corn; [23]) | Corn plant response rating (corn; [24]) | Plant response rating, Corn (corn; [2]) | Corn plant response rating (corn; [3]) | Corn plant response rating (corn; [4]) | Corn plant response rating (0 to 10 scale) (corn; Preemergence, Rate 250 g/ha) | Corn plant response rating (corn; [20]) | Plant response rating, Rape (rape; [23]) | Rape plant response rating (rape; [24]) | Plant response rating, Rape (rape; [2]) | Rape plant response rating (rape; [3]) | Rape plant response rating (rape; [4]) | Ducksalad plant response rating (duck salad; [9]) | Ducksalad plant response rating (0 to 10 scale, 0 is no effect, 10 is complete control) (duck salad; [10]) | Ducksalad plant response rating (duck salad; [11]) | Ducksalad plant response rating (duck salad; [22]) | Plant response rating, Sugarbeets (sugar beet; [23]) | Sugarbeets plant response rating (sugar beet; [24]) | Plant response rating, Sugarbeets (sugar beet; [2]) | Sugarbeets plant response rating (sugar beet; [3]) | Sugarbeets plant response rating (sugar beet; [4]) | Sugarbeets plant response rating (sugar beet; [20])
1: Rape plant response rating (rape; [20])
4: Plant response rating, Corn (corn; [8])
3: Plant response rating, Sugarbeets (sugar beet; [8])
2: Plant response rating, Rape (rape; [8])

Cc1nc(C)c(-n2c(=O)on(C(=O)N(c3ccc(Cl)cc3)C(C)C)c2=O)s1 [Compound 196]
0: Corn plant response rating (corn; [13]) | Corn plant response rating (0 to 10 scale) (corn; [25]) | Corn plant response rating (corn; [5]) | Plant response rating, Corn (corn; [20]) | Corn plant response rating (corn; [26]) | Corn plant response rating (corn; [27]) | Plant response rating (0 to 10; 0 is no effect, 10 is complete control), Corn (corn; Rate 250 g/ha, Postemergence) | Corn plant response rating (corn; [28]) | Rape plant response rating (rape; [13]) | Rape plant response rating (0 to 10 scale) (rape; [25]) | Rape plant response rating (rape; [5]) | Plant response rating, Rape (rape; [20]) | Rape plant response rating (rape; [26]) | Rape plant response rating (rape; [27]) | Plant response rating (0 to 10; 0 is no effect, 10 is complete control), Rape (rape; Rate 250 g/ha, Postemergence) | Rape plant response rating (rape; [28]) | Ducksalad plant response rating (duck salad; Rate 31 g/ha, Pre-emergence section (flood test species), scale 0 to 10) | Ducksalad plant response rating (duck salad; Rate 62 g/ha, headed Pre-emergence (flood test species), scale 0 to 10 (0 no effect, 10 complete control)) | Ducksalad plant response rating (duck salad; Rate 125 g/ha, Pre-emergence, flood test species, scale 0 to 10 where 0 is no effect and 10 is complete control) | Ducksalad plant response rating (duck salad; Rate 250 g/ha, Pre-emergence, flood-test species, scale 0 to 10, 0 is no effect, 10 is complete control) | Plant response rating, Ducksalad (duck salad; Rate 500 g/ha, headed Pre-emergence (flood test species), scale 0 to 10 (0 no effect, 10 complete control)) | Sugarbeets plant response rating (sugar beet; [13]) | Sugarbeets plant response rating (0 to 10 scale) (sugar beet; [25]) | Sugarbeets plant response rating (sugar beet; [5]) | Plant response rating, Sugarbeets (sugar beet; [20]) | Sugarbeets plant response rating (sugar beet; [26]) | Sugarbeets plant response rating (sugar beet; [27]) | Plant response rating (0 to 10; 0 is no effect, 10 is complete control), Sugarbeets (sugar beet; Rate 250 g/ha, Postemergence) | Sugarbeets plant response rating (sugar beet; [28])
